Laboratory results taken from ChEMBL document CHEMBL6115000, “Discovery of a first-in-class PROTAC degrader of histone lysine demethylase KDM4” (Eur J Med Chem, 2025).
Calls of active or inactive are those of the source. The calls are words filed in the database; no cut-off is given here.

Assays:
[1] = Induction of apoptosis in human KYSE-150 cells assessed as necrotic cells at 333.3 nM incubated for 72 hrs by Annexin V-PE/7-AAD staining based flow cytometry (reference value: 4.28 %); assay type: functional
[2] = Induction of cell cycle arrest in human KYSE-150 cells assessed as accumulation of cells at G0/G1 phase at 1000 nM incubated for 24 hrs by flow cytometry (reference value: 65.08 %); assay type: functional
[3] = Induction of cell cycle arrest in human KYSE-150 cells assessed as accumulation of cells at G2/M phase at 1000 nM incubated for 24 hrs by flow cytometry (reference value: 21.64 %); assay type: functional
[4] = Induction of apoptosis in human KYSE-150 cells assessed as early apoptotic cells at 111.1 nM incubated for 72 hrs by Annexin V-PE/7-AAD staining based flow cytometry (reference value: 5.27 %); assay type: functional
[5] = target: T1, von Hippel-Lindau disease tumor suppressor/Lysine-specific demethylase 4B (Homo sapiens, UniProt P40337+O94953); assay: PROTAC activity at VHL/KDM4B in human KYSE-150 cells assessed as induction of KDM4B degradation upto 1000 nM measured after 24 hrs by Western blot analysis relative to control; assay type: cell-based; conditions: KYSE-150 cell line
Target sequence in this assay (O94953 whole entry, looked up): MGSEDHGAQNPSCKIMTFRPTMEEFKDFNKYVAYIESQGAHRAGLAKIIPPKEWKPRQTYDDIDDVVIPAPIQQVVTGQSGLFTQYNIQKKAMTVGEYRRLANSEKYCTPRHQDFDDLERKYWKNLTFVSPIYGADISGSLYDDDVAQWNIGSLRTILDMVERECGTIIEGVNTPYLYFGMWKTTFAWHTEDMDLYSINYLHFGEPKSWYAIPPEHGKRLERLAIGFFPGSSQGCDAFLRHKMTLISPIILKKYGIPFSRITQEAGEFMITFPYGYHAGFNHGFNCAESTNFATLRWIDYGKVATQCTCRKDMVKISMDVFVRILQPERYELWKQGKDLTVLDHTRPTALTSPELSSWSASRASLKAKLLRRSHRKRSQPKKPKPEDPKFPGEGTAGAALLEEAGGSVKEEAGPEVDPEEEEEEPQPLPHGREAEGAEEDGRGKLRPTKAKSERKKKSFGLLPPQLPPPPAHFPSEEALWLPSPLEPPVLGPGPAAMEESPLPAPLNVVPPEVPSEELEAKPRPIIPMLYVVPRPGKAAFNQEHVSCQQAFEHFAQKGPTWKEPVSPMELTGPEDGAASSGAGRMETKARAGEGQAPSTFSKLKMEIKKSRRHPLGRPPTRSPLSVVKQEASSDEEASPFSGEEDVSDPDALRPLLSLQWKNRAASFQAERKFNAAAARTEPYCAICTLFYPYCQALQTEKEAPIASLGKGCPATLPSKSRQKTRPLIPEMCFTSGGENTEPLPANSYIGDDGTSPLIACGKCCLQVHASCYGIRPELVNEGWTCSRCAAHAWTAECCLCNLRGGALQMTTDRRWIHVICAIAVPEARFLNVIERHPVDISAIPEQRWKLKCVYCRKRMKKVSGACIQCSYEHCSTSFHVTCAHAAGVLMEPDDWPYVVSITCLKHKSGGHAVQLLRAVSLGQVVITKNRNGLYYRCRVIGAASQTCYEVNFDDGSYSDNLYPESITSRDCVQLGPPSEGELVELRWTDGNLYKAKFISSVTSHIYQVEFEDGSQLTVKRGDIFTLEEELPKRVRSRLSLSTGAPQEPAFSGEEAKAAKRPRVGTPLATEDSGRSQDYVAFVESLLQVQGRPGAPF
Target sequence in this assay (P40337 whole entry, looked up): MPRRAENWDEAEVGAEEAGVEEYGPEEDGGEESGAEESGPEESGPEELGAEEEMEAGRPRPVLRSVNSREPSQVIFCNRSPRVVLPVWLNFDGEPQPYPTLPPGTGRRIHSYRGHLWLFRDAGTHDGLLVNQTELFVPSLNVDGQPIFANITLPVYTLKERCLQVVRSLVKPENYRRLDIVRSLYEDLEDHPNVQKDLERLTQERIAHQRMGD

[6] = Induction of cell cycle arrest in human KYSE-150 cells assessed as accumulation of cells at S pahse at 37 nM incubated for 24 hrs by flow cytometry (reference value: 13.15 %); assay type: functional
[7] = target: T2, von Hippel-Lindau disease tumor suppressor/Lysine-specific demethylase 4A (Homo sapiens, UniProt O75164+P40337); assay: PROTAC activity at VHL/KDM4A in human KYSE-150 cells assessed as induction of KDM4A degradation at 50 nM incubated for 24 hrs in presence of bortezomib by Western blot analysis; assay type: cell-based; conditions: KYSE-150 cell line
[8] = Induction of cell cycle arrest in human KYSE-150 cells assessed as accumulation of cells at S pahse at 12.3 nM incubated for 24 hrs by flow cytometry (reference value: 13.15 %); assay type: functional
[9] = Induction of apoptosis in human KYSE-150 cells assessed as viable cells at 333.3 nM incubated for 72 hrs by Annexin V-PE/7-AAD staining based flow cytometry (reference value: 84.47 %); assay type: functional; conditions: read-out: Activity
[10] = Induction of cell cycle arrest in human KYSE-150 cells assessed as accumulation of cells at S pahse at 1000 nM incubated for 24 hrs by flow cytometry (reference value: 13.15 %); assay type: functional
[11] = target: T2, von Hippel-Lindau disease tumor suppressor/Lysine-specific demethylase 4A; assay: PROTAC activity at VHL/KDM4A in human KYSE-150 cells assessed as increase in KDM4A ubiquitination at 50 nM incubated for 24 hrs by Western blot analysis; assay type: cell-based; conditions: KYSE-150 cell line
[12] = target: von Hippel-Lindau disease tumor suppressor/Lysine-specific demethylase 4C (Homo sapiens, UniProt Q9H3R0+P40337); assay: PROTAC activity at VHL/KDM4C in human KYSE-150 cells assessed as induction of KDM4C degradation measured after 24 hrs by Western blot analysis; assay type: cell-based
[13] = Induction of apoptosis in human KYSE-150 cells assessed as late apoptotic cells at 1000 nM incubated for 72 hrs by Annexin V-PE/7-AAD staining based flow cytometry (reference value: 5.98 %); assay type: functional
[14] = Induction of apoptosis in human KYSE-150 cells assessed as viable cells at 12.3 nM incubated for 72 hrs by Annexin V-PE/7-AAD staining based flow cytometry (reference value: 84.47 %); assay type: functional; conditions: read-out: Activity
[15] = target: T2, von Hippel-Lindau disease tumor suppressor/Lysine-specific demethylase 4A; assay: PROTAC activity at VHL/KDM4A in human KYSE-150 cells assessed as fold increase in H3K36me3 level at 1000 nM incubated for 24 hrs by Western blot analysis relative to control; assay type: cell-based; conditions: KYSE-150 cell line
[16] = Induction of cell cycle arrest in human KYSE-150 cells assessed as accumulation of cells at G0/G1 phase at 111.1 nM incubated for 24 hrs by flow cytometry (reference value: 65.08 %); assay type: functional
[17] = Induction of apoptosis in human KYSE-150 cells assessed as viable cells at 1000 nM incubated for 72 hrs by Annexin V-PE/7-AAD staining based flow cytometry (reference value: 84.47 %); assay type: functional; conditions: read-out: Activity
[18] = Induction of apoptosis in human KYSE-150 cells assessed as necrotic cells at 111.1 nM incubated for 72 hrs by Annexin V-PE/7-AAD staining based flow cytometry (reference value: 4.28 %); assay type: functional
[19] = Induction of cell cycle arrest in human KYSE-150 cells assessed as accumulation of cells at G0/G1 phase at 333.3 nM incubated for 24 hrs by flow cytometry (reference value: 65.08 %); assay type: functional
[20] = Induction of cell cycle arrest in human KYSE-150 cells assessed as accumulation of cells at G2/M phase at 111.1 nM incubated for 24 hrs by flow cytometry (reference value: 21.64 %); assay type: functional
[21] = target: T1, von Hippel-Lindau disease tumor suppressor/Lysine-specific demethylase 4B; assay: PROTAC activity at VHL/KDM4B in human KYSE-150 cells assessed as induction of KDM4B degradation measured after 24 hrs by Western blot analysis; assay type: cell-based
[22] = Induction of apoptosis in human KYSE-150 cells assessed as necrotic cells at 12.3 nM incubated for 72 hrs by Annexin V-PE/7-AAD staining based flow cytometry (reference value: 4.28 %); assay type: functional
[23] = Induction of apoptosis in human KYSE-150 cells assessed as viable cells at 37 nM incubated for 72 hrs by Annexin V-PE/7-AAD staining based flow cytometry (reference value: 84.47 %); assay type: functional; conditions: read-out: Activity
[24] = target: T2, von Hippel-Lindau disease tumor suppressor/Lysine-specific demethylase 4A; assay: PROTAC activity at VHL/KDM4A in human KYSE-150 cells assessed as induction of KDM4A degradation at 1 uM incubated for 12 hrs by Western blot analysis relative to control; assay type: cell-based; conditions: KYSE-150 cell line
[25] = Induction of cell cycle arrest in human KYSE-150 cells assessed as accumulation of cells at G2/M phase at 12.3 nM incubated for 24 hrs by flow cytometry (reference value: 21.64 %); assay type: functional

T2 sequence (O75164 2-1064 limits assumed): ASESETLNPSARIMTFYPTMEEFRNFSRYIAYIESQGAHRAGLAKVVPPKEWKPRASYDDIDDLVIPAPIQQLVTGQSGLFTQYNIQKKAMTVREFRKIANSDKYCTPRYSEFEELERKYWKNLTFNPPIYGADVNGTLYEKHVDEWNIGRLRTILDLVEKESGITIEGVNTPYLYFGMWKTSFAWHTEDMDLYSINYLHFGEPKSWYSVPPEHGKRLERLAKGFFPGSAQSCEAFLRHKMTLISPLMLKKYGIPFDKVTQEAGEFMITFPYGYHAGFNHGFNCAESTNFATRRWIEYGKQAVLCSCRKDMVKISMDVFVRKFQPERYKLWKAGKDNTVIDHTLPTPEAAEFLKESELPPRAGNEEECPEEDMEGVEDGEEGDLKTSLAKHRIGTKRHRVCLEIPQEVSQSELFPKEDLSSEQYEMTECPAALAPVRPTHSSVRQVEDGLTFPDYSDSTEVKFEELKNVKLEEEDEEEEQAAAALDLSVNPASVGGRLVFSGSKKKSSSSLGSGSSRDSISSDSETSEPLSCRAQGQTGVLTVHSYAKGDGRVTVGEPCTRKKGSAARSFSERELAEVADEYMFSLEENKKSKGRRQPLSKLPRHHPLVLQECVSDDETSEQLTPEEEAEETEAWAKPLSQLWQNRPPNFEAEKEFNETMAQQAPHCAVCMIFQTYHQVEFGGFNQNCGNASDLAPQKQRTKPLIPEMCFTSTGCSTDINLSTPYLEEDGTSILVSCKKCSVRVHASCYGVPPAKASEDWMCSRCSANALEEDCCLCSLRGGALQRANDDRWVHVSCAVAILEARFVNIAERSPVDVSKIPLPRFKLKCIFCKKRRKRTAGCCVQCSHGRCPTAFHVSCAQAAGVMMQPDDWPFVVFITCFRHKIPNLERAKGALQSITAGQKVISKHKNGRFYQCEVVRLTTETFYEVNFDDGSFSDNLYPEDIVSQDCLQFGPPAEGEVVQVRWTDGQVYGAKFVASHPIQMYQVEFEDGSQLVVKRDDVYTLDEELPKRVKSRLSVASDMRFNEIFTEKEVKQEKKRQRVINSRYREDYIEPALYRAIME
T2 sequence (P40337 whole entry partner): as the sequence (P40337 whole entry, looked up) above

- Emax [5]: 73.1%
- Activity [7]: inactive
- Activity [11]: Active
- Activity ([12]; KYSE-150 cell line): Dose-dependent-effect
- DC50 ([12]; kyse-150 cell line): 0.0494 µM
- FC [15]: 2
- Activity ([21]; KYSE-150 cell line): Dose-dependent-effect
- DC50 ([21]; kyse-150 cell line): 0.0399 µM
- Activity [24]: 57.2%
SMILES: Cc1ncsc1-c1ccc([C@H](C)NC(=O)[C@@H]2C[C@@H](O)CN2C(=O)[C@@H](NC(=O)CCCCCCCCCOc2ccc(N(C)c3ccc4c(c3)OCC[C@H]4CNc3cnccc3C(=O)O)cc2)C(C)(C)C)cc1
- Activity [1]: 4.83%
- Activity [2]: 74.74%
- Activity [3]: 12.05%
- Activity [4]: 22.13%
- Activity [6]: 14.84%
- Activity [8]: 14.42%
- viability at 0.3333 µM [9]: 19.5%
- Activity [10]: 13.1%
- Activity [13]: 47.86%
- viability at 0.0123 µM [14]: 64.4%
- Activity [16]: 73.05%
- viability at 1 µM [17]: 17.9%
- Activity [18]: 5.52%
- Activity [19]: 72.82%
- Activity [20]: 12.48%
- Activity [22]: 6.02%
- viability at 0.037 µM [23]: 30.6%
- Activity [25]: 16.31%
